Experimental data: US20100227880A1, “CHEMICAL COMPOUNDS” (priority 2006, published 2010)
Like-named read-outs stand apart in the source and are kept apart here.

Tested on: HIV-1 Ba-L or HIV-1 IIIB infection of the HOS cell line (expressing hCXCR4/hCCR5/hCD4/pHIV-LTR-luciferase)
Assay: HOS HIV-1 Infectivity Assay
Type: cell-based
Details: luciferase readout, strain not given, read-out: Activity Level
Method: Compounds were profiled against two HIV-1 viruses, the M-tropic (CCR5 utilizing) Ba-L strain and the T-tropic (CXCR4 utilizing) IIIB strain. Ba-L was propagated in either peripheral blood lymphocytes or SupT1/CCR5+/CXCR4+ cells. IIIB was propagated in peripheral blood lymphocytes. Compounds were tested for their ability to block infection of the HOS cell line (expressing hCXCR4/hCCR5/hCD4/pHIV-LTR-luciferase) by either HIV-1 Ba-L or HIV-1 IIIB. Compound cytotoxicity was also examined in the absence of virus addition.
HOS cells (expressing hCXCR4/hCCR5/hCD4/pHIV-LTR-luciferase) were harvested and diluted in Dulbeccos modified Eagles media supplemented with 2% FCS to a concentration of 120,000 cells/ml. The cells were plated into 96-well plates (50 μl per well) and the plates were placed in a tissue culture incubator (370° C.; 5% CO2/95% air) for a period of 24 h.
Subsequently, 50 μl of the desired drug solution (2 times the final concentration) was added to each well and the plates were returned to the tissue culture incubator ([…]; 5% CO2/95% air) for 1 h. Following this incubation, 60 μl of diluted virus (4 times the final concentration) was added to 60 μl of 2× the final desired concentration of the compound and 100 μl this compound/virus mix was added to each well (approximately 2 million RLU per well of virus). The plates were returned to the tissue culture incubator ([…]; 5% CO2/95% air) and were incubated for a further 96 h.
Following this incubation the endpoint for the virally infected cultures was quantified following addition of Steady-Glo Luciferase assay system reagent (Promega, Madison, Wis.). Cell viability or non-infected cultures was measured using a CellTiter-Glo luminescent cell viability assay system (Promega, Madison, Wis.). All luminescent readouts are performed on a Topcount luminescence detector (Packard, Meridien, Conn.).

[1] = Human immunodeficiency virus 1, HOS cells

Molecule	IC50 [1] [nM]	IC50 (HOS cells) [nM]
CN1CCN(Cc2c(CN(C)C3CCCc4cccnc43)nc3ccccn23)CC1 (stereo not drawn) [Example 31, N-methyl-N-({3-[(4-methyl-1-piperazinyl)methyl]imidazo[1,2-d]pyridin-2-yl}methyl)-5,6,7,8-tetrahydro-8-quinolinamine]	100 to 500	
CN(Cc1nc2ccccn2c1CNCCCN)C1CCCc2cccnc21 (stereo not drawn) [Example 32, N-[(2-{-[methyl(5,6,7,8-tetrahydro-8-quinolinyl)amino]methyl}imidazo[1,2-a]pyridin-3-yl)methyl]-1,3-propanediamine]	100 to 500	
CN(C)CCNC(=O)c1c(CN(C)C2CCCc3cccnc32)nc2ccccn12 (stereo not drawn) [Example 33, N-[2-(dimethylamino)ethyl]-2-{[methyl(5,6,7,8-tetrahydro-8-quinolinyl)amino]methyl}imidazo[1,2-a]pyridine-3-carboxamide]	500 to 10000	
CN(Cc1nc2ccccn2c1C(=O)N1CC(N)C1)C1CCCc2cccnc21 (stereo not drawn) [Example 34, N-({3-[(3-amino-1-azetidinyl)carbonyl]imidazo[1,2-a]pyridin-2-yl}methyl)-N-methyl-5,6,7,8-tetrahydro-8-quinolinamine]	500 to 10000	
CN(Cc1nc2ccccn2c1C(=O)NCCN1CCCC1)C1CCCc2cccnc21 (stereo not drawn) [Example 35, 2-{[methyl(5,6,7,8-tetrahydro-8-quinolinyl)amino]methyl}-N-[2-(1-pyrrolidinyl)ethyl]imidazo[1,2-a]pyridine-3-carboxamide]	500 to 10000	
CN(C)C1CCN(C(=O)c2c(CN(C)C3CCCc4cccnc43)nc3ccccn23)C1 (stereo not drawn) [Example 36, N-[(3-{[3-(dimethylamino)-1-pyrrolidinyl]carbonyl}imidazo[1,2-a]pyridin-2-yl)methyl]-N-methyl-5,6,7,8-tetrahydro-8-quinolinamine]	100 to 500	
CN1CCN(C(=O)c2c(CN(C)C3CCCc4cccnc43)nc3ccccn23)CC1 (stereo not drawn) [Example 37, N-methyl-N-({3-[(4-methyl-1-piperazinyl)carbonyl]imidazo[1,2-a]pyridin-2-yl}methyl)-5,6,7,8-tetrahydro-8-quinolinamine]	500 to 10000	
CC(C)N1CCN(C(=O)c2c(CN(C)C3CCCc4cccnc43)nc3ccccn23)CC1 (stereo not drawn) [Example 38, N-methyl-N-[(3-{[4-(1-methylethyl)-1-piperazinyl]carbonyl}imidazo[1,2-a]pyridin-2-yl)methyl]-5,6,7,8-tetrahydro-8-quinolinamine]	500 to 10000	
N,N,N′-Trimethyl-N′-{[2-({methyl[(8S)-5,6,7,8-tetrahydro-8-quinolinyl]amino}methyl)imidazo[1,2-a]pyridin-3-yl]methyl}-1,2-ethanediamine [Example 17]		< 100
